Data published in patent publication US20230295201A1 (Gilead Sciences, Inc., priority 2020, published 2023).
Read-outs that look alike come from different tables or passages of the source.

Key:
Assay type in all cases: cell-based
[1] = system: RSV strain A2; assay: RSV HEp-2 EC50 (infectious cytopathic cell protection assay); conditions: HEp-2 cells, RSV A2, 4 days, read-out: RSV HEp-2 EC50
Experimental: Antiviral activity against RSV is determined using an infectious cytopathic cell protection assay in HEp-2 cells. In this assay, compounds inhibiting viral infection and/or replication produce a cytoprotective effect against the virus-induced cell killing that can be quantified using a cell viability reagent. The techniques used here are novel adaptations of methods described in published literature (Chapman et al., Antimicrob Agents Chemother. 2007, 51(9):3346-53.)
HEp-2 cells are obtained from ATCC (Manassas, VI) and maintained in MEM media supplemented with 10% fetal bovine serum and penicillin/streptomycin. Cells are passaged twice a week and kept at subconfluent stage. Commercial stock of RSV strain A2 (Advanced Biotechnologies, Columbia, MD) is titered before compound testing to determine the appropriate dilution of the virus stock that generates desirable cytopathic effect in HEp-2 cells.
For antiviral tests, HEp-2 cells are grown in large cell culture flasks to near confluency but not fully so. The compounds to be tested are prediluted in DMSO in 384-well compound dilution plates, either in an 8 or 40 sample per plate standardized dose response format. 3-fold serial dilution increments of each test compound are prepared in the plates and test samples are transferred via acoustic transfer apparatus (Echo, Labcyte) at 100 nL per well into cell culture assay 384-well plates. Each compound dilution is transferred in single or quadruplicate samples into dry assay plates, which are stored until assay is ready to go. The positive and negative controls are laid out in opposite on ends of the plate in vertical blocks (1 column).
Subsequently, an infectious mixture is prepared using an appropriate dilution of virus stock previously determined by titration with cells at a density of 50,000/ml and 20 µL/well is added to test plates w/compounds via automation (uFlow, Biotek). Each plate includes negative and positive controls (16 replicates each) to create 0% and 100% virus inhibition standards, respectively. Following the infection with RSV, testing plates are incubated for 4 days in a 37° C. cell culture incubator. After the incubation, a cell viability reagent, Cell TiterGlo (Promega, Madison, WI) is added to the assay plates, which are incubated briefly, and a luminescent readout is measured (Envision, Perkin Elmer) in all the assay plates. The RSV-induced cytopathic effect, percentage inhibition, is determined from the levels of remaining cell viability. […] Various potent anti-RSV tool compounds are used as positive controls for antiviral activity.

[2] = system: RSV A2; assay: RSV NHBE EC50 (RSV A2 antiviral assay in normal human bronchial epithelial cells); conditions: NHBE cells, RSV A2, 4 days, read-out: RSV NHBE EC50
Experimental: Normal human bronchial epithelial (NHBE) cells were purchased from Lonza (Walkersville, MD, Cat #CC-2540) and cultured in Bronchial Epithelial Growth Media (BEGM) (Lonza, Walkersville, MD, Cat #CC-3170). The cells were passaged 1-2 times per week to maintain <80% confluency. The NHBE cells were discarded after 6 passages in culture.
To conduct the RSV A2 antiviral assay, NHBE cells were plated in 96-well plates at a density of 7,500 cells per well in BEGM and allowed to attach overnight at 37° C. Following attachment, 100 μL of cell culture media was removed and 3-fold serially diluted compound was added using a Hewlett-Packard D300 Digital Dispenser. The final concentration of DMSO was normalized to 0.05%. Following compound addition, the NHBE cells were infected by the addition of 100 μL of RSV A2 at a titer of 1×10^4.5 tissue culture infectious doses/mL in BEGM and then incubated at 37° C. for 4 days. […] The mixtures were incubated for 10 minutes at 25° C., and the luminescence signal was quantified on an Envision luminescence plate reader.

[3] = system: HRV16; assay: HRV16 HELA EC50 (cytopathic effect in H1-HeLa cells)
Experimental: H1-HeLa cells, cultured in complete DMEM medium containing 10% heat-inactivated FBS and 1% Penicillin/Streptomycin, were seeded in 96 well plates at 3000 cells/well one day prior to compound dosing and infection. The antiviral activity of each compound was measured in triplicate. Compounds were added directly to the cell cultures in serial 3-fold dilutions using the HP300 digital dispenser (Hewlett Packard, Palo Alto, CA) immediately prior to infection. The plates were transferred to BSL-2 containment and the appropriate dilution of virus stock, previously determined by titration and prepared in cell culture media, was added to test plates containing cells and serially diluted compounds. Each plate included 6 wells of infected untreated cells and 6 wells of uninfected cells that served as 0% and 100% virus inhibition control, respectively. Following the infection, test plates were incubated for 96 h in a tissue culture incubator set to 33° C./5% CO2. Following incubation, the H1-HeLa cells were removed from incubation and allowed to equilibrate to 25° C. Cell viability was determined by removing 100 μL of culture medium and adding 100 μL of Cell-Titer Glo viability reagent. The mixtures were incubated on a shaker for 10 minutes at 25° C., and the luminescence signal was quantified on an Envision luminescence plate reader.

[4] = system: DENV2 replicon; assay: DENV-2 Huh-7 Rep EC50 (replicon luminescence); conditions: Dengue virus, DENV2, Huh-7, 48 h, Huh-7 replicon cells, 48 hours; read-out: DENV-2 Huh-7 Rep EC50
Experimental: In 384 well plates (Greiner, Cat #781091), compounds were acoustically transferred at 200 nl per well in a 8 compound (4 replicates) or 40 compound dose response format (3 replicates). For all plates tested, Balapiravir, GS-5734 and NITD008 were included as positive inhibition controls alongside 0% inhibition, DMSO-only negative control wells. Following compound addition, Huh-7 cells containing the DENV2 replicon construct were harvested following standard cell culture procedures and were adjusted to a concentration of 1.25E5 cells/mL in cell culture media composed of cDMEM without genticin. 40 μL of the cell stock was then added to each well for a final cell density of 5,000 cells/well. Cell and compound mixtures were incubated at 37° C./5% CO2 for 48 hours. Prior to harvesting cells, EnduRen Live Cell Substrate (Promega, Cat #E6481) was prepared by suspending 3.4 mg into 100 uL of DMSO to generate a 60 mM stock solution. The stock solution was then diluted 1:200 in pre-warmed cDMEM and 10 uL of this diluted solution was added to each well of the 384 well plates. Plates were then centrifuged at 500 rpm briefly and were placed on a plate shaker for 2 min. Following mixing, plates were incubated at […] for 1.5 hours prior to measuring luminescence on an Envision luminometer.

[5] = human respiratory syncytial virus, HEp-2, 96 h
[6] = human respiratory syncytial virus, NHBE, 96 h
[7] = 96 h, H1-HeLa cells, 33° C., read-out: HRV16 HELA EC50
[8] = H1-HeLa cells, 96 h, 33° C.; read-out: HRV16 HELA EC50
[9] = human respiratory syncytial virus, 96 h

| Compound | EC50 [1, 5] [µM] | EC50 [2, 6] [µM] | EC50 [3, 7] [µM] | EC50 [4] [µM] | EC50 [1] [µM] | EC50 [2] [µM] | EC50 [3, 8] [µM] | EC50 [1, 9] [µM] | EC50 [2, 9] [µM] |
| --- | --- | --- | --- | --- | --- | --- | --- | --- | --- |
| C[C@H](NP(=O)(OC[C@@]1(C#N)O[C@@H](c2ccc3c(N)ncnn23)[C@H](O)[C@@H]1O)Oc1ccccc1)C(=O)OC[C@H]1CC[C@H](C(F)(F)F)CC1 (mixture of isomers) [Example 26, ((1r,4S)-4-(trifluoromethyl)cyclohexyl)methyl ((((2R,3S,4R,5S)-5-(4-aminopyrrolo[2,1-f][1,2,4]triazin-7-yl)-2-cyano-3,4-dihydroxytetrahydrofuran-2-yl)methoxy)(phenoxy)phosphoryl)alaninate] | 0.334 | 0.025 | 0.669 | 44.3 | – | – | – | – | – |
| CCOC(=O)[C@H](CCCCNC(C)=O)NP(=O)(OC[C@@]1(C#N)O[C@@H](c2ccc3c(N)ncnn23)[C@H](O)[C@@H]1O)Oc1ccccc1 (mixture of isomers) [Example 85, (2S)-ethyl 6-acetamido-2-(((((2R,3S,4R,5S)-5-(4-aminopyrrolo[2,1-f][1,2,4]triazin-7-yl)-2-cyano-3,4-dihydroxytetrahydrofuran-2-yl)methoxy)(phenoxy)phosphoryl)amino)hexanoate] | > 46.7 | > 5 | > 50 | > 50 | – | – | – | – | – |
| CCC(CC)COC(=O)[C@H](CCCCN)NP(=O)(OC[C@@]1(C#N)O[C@@H](c2ccc3c(N)ncnn23)[C@H](O)[C@@H]1O)Oc1ccccc1 (mixture of isomers) [Example 91, (2S)-2-ethylbutyl 6-amino-2-(((((2R,3S,4R,5S)-5-(4-aminopyrrolo[2,1-f][1,2,4]triazin-7-yl)-2-cyano-3,4-dihydroxytetrahydrofuran-2-yl)methoxy)(phenoxy)phosphoryl)amino)hexanoate] | 12.1 | > 5 | > 50 | > 50 | – | – | – | – | – |
| CC(C)OC(=O)C1(NP(=O)(OC[C@@]2(C#N)O[C@@H](c3ccc4c(N)ncnn34)[C@H](O)[C@@H]2O)Oc2ccccc2)CCC1 (mixture of isomers) [Example 95, isopropyl 1-(((((2R,3S,4R,5S)-5-(4-aminopyrrolo[2,1-f][1,2,4]triazin-7-yl)-2-cyano-3,4-dihydroxytetrahydrofuran-2-yl)methoxy)(phenoxy)phosphoryl)amino)cyclobutanecarboxylate] | 15.2 | > 5 | > 42.2 | > 50 | – | – | – | – | – |
| CCOC(=O)C1(NP(=O)(OC[C@@]2(C#N)O[C@@H](c3ccc4c(N)ncnn34)[C@H](O)[C@@H]2O)Oc2ccccc2)CC1 (mixture of isomers) [Example 106, ethyl 1-(((((2R,3S,4R,5S)-5-(4-aminopyrrolo[2,1-f][1,2,4]triazin-7-yl)-2-cyano-3,4-dihydroxytetrahydrofuran-2-yl)methoxy)(phenoxy)phosphoryl)amino)cyclopropanecarboxylate] | > 42.5 | > 5 | > 100 | > 100 | – | – | – | – | – |
| N#C[C@]1(COP(=O)(NCC(=O)OC2CCCC2)Oc2ccccc2)O[C@@H](c2ccc3c(N)ncnn23)[C@H](O)[C@@H]1O (mixture of isomers) [Example 112, cyclopentyl 2-(((((2R,3S,4R,5S)-5-(4-aminopyrrolo[2,1-f][1,2,4]triazin-7-yl)-2-cyano-3,4-dihydroxytetrahydrofuran-2-yl)methoxy)(phenoxy)phosphoryl)amino)acetate] | 1.41 | 0.464 | 3.69 | > 50 | – | – | – | – | – |
| COC(=O)[C@H](C)NP(=O)(OC[C@@]1(C#N)O[C@@H](c2ccc3c(N)ncnn23)[C@H](O)[C@@H]1O)Oc1ccc(C[C@H](N)C(=O)OC)cc1 (single isomer, unassigned) [Example 62] | – | – | – | – | 4.53 | > 5 | 8.57 | – | – |
| C[C@@H](NP(=O)(OC[C@@]1(C#N)O[C@@H](c2ccc3c(N)ncnn23)[C@H](O)[C@@H]1O)Oc1ccccc1)C(=O)O[C@H]1CC[C@H](C(F)(F)F)CC1 (single isomer, unassigned) [Example 196] | – | – | – | – | 4.13 | 1.32 | 7.54 | – | – |
| CSCCOP(=O)(N[C@@H](C)C(=O)OC(C)C)OC[C@@]1(C#N)O[C@@H](c2ccc3c(N)ncnn23)[C@H](O)[C@@H]1O (stereo partly drawn) [Example 40, isopropyl ((((2R,3S,4R,5S)-5-(4-aminopyrrolo[2,1-f][1,2,4]triazin-7-yl)-2-cyano-3,4-dihydroxytetrahydrofuran-2-yl)methoxy)(2-(methylthio)ethoxy)phosphoryl)-L-alaninate] | – | – | – | – | – | – | > 50 | 21.5 | ≥ 5 |
| C[C@H](NP(=O)(OC[C@@]1(C#N)O[C@@H](c2ccc3c(N)ncnn23)[C@H](O)[C@@H]1O)Oc1ccccc1)C(=O)OC1COC1 (stereo partly drawn) [Example 44, oxetan-3-yl ((((2R,3S,4R,5S)-5-(4-aminopyrrolo[2,1-f][1,2,4]triazin-7-yl)-2-cyano-3,4-dihydroxytetrahydrofuran-2-yl)methoxy)(phenoxy)phosphoryl)-L-alaninate] | 0.998 | 1.8 | 4.26 | – | – | – | – | – | – |
| CCCCCCCCCCCCCCCC(=O)OCC(COP(=O)(O)OC[C@@]1(C#N)O[C@@H](c2ccc3c(N)ncnn23)[C@H](O)[C@@H]1O)OC(=O)CCCCCCCCCCCCCCC (stereo partly drawn) [Example 152, 3-(((((2R,3S,4R,5S)-5-(4-aminopyrrolo[2,1-f][1,2,4]triazin-7-yl)-2-cyano-3,4-dihydroxytetrahydrofuran-2-yl)methoxy)(hydroxy)phosphoryl)oxy)propane-1,2-diyl dipalmitate] | – | – | – | – | – | – | > 5 | > 5 | 1.78 |
